Results published in patent US6992088B2, “Nitro and amino substituted heterocycles as topoisomerase I targeting agents” (Rutgers, The State University of New Jersey, priority 2002, dated 2006).

Legend:
CPT-K5 = assay: MTT-microtiter plate tetrazolinium cytotoxicity assay, CPT-K5 (camptothecin-resistant variant); assay type: cell-based; conditions: Homo sapiens, CPT-K5 cells (camptothecin-resistant variant of RPMI 8402), continuous exposure 3-4 days
Method: (§1) Test B. Inhibition of Cell Growth: MTT-microtiter Plate Tetrazolinium Cytotoxicity Assay (RPMI 8402, CPT-K5, U937, U937/CR Cells)
(§2) The cytotoxicity is determined using the MTT-microtiter plate tetrazolinium cytotoxicity assay (MTA), see Chen A. Y. et al. Cancer Res. 1993, 53, 1332; Mosmann, T. J., J. Immunol. Methods 1983, 65, 55; and Carmichael, J. et al. Cancer Res. 1987, 47, 936. The human lymphoblast RPMI 8402 and its camptothecin-resistant variant cell line, CPT-K5 were provided by Dr. Toshiwo Andoh (Anchi Cancer Research Institute, Nagoya, Japan), see Andoh, T.; Okada, K, Adv. in Pharmacology 1994, 29B, 93. Human U-937 myeloid leukemia cells and U-937/CR cells were described by Rubin et al., J. Biol. Chem., 1994, 269, 2433-2439. The cytotoxicity assay is performed by using 96-well microtiter plates using 2000 cells/well, in […] of growth medium. Cells are grown in suspension at 37° C. in 5% CO2 and maintained by regular passage in RPMI medium supplemented with 10% heat-inactivated fetal bovine serum, L-glutamine (2 mM), penicillin (100U/mL), and streptomycin (0.1 mg/mL). For determination of IC50, cells are exposed continuously for 3-4 days to varying concentrations of drug, and MTT assays were performed at the end of the fourth day. […] All assays are performed at least twice in 6 replicate wells. […]

KB3-1 = assay: MTT-microtiter plate tetrazolinium cytotoxicity assay, KB3-1; assay type: cell-based; conditions: Homo sapiens, KB 3-1, KB3-1 cells
Method: as §1, §2

HL60 = assay: MTT-microtiter plate tetrazolinium cytotoxicity assay, HL60; assay type: cell-based; conditions: Homo sapiens, HL-60, HL60 cells
Method: as §1, §2

RPMI8402 = assay: MTT-microtiter plate tetrazolinium cytotoxicity assay, RPMI8402; assay type: cell-based; conditions: Homo sapiens, RPMI 8402, RPMI8402 cells, continuous exposure 3-4 days
Method: as §1, §2

KBV-1 = assay: MTT-microtiter plate tetrazolinium cytotoxicity assay, KBV-1; assay type: cell-based; conditions: Homo sapiens, KB-V1, KBV-1 cells
Method: as §1, §2

HL60/MX2 = assay: MTT-microtiter plate tetrazolinium cytotoxicity assay, HL60/MX2; assay type: cell-based; conditions: Homo sapiens, HL60/MX2 cells
Method: as §1, §2

KBH5.0 = assay: MTT-microtiter plate tetrazolinium cytotoxicity assay, KBH5.0; assay type: cell-based; conditions: KBH5.0 cells
Method: as §1, §2

melting point: 191 to 192 °C
Compound: CN(C)CCCn1c2c(c3ccc([N+](=O)[O-])cc3c1=O)C(=O)c1cc3c(cc1-2)OCO3 [Compound B]
IC50 (CPT-K5): 2.4 µM | IC50 (KB3-1): 0.004 µM | IC50 (HL60): 0.003 µM | IC50 (RPMI8402): 0.003 µM | IC50 (KBV-1): 0.004 µM | IC50 (HL60/MX2): 0.003 µM | IC50 (KBH5.0): 0.004 µM
